According to patent US8445448B2, “FVIII peptides and their use in tolerising haemophiliacs” (Apitope International NV, priority 2007, dated 2013):

Tests used:
[1] = tested on: fixed Mgar cells / FVIII-/- T cell hybridoma clones; test: Presentation by fresh or fixed Mgar cells to hybridoma clones (antigen processing-independent presentation, IL-2 ELISA); format: cell-based; conditions: 20 μg/ml, overnight, Mgar cells fresh or fixed with 1% paraformaldehyde, IL-2 by ELISA; FIG. 5
Procedure: In order to be an antigen processing-independent epitope, a peptide must be capable of binding to an MHC class I or II molecule without further antigen processing (i.e. trimming) and be presented to a T cell. In the present case, the capacity of peptides to be presented by fixed APC was investigated.
Mgar cells were either fresh or fixed with 1% paraformaldehyde. Clones were tested for antigenic specificity by culturing 100 μl of hybridoma cells with 5×10^4 Mgar cells in the presence and absence of 20 μg/ml rhFVIII or peptide epitopes overnight. Supernatants were then collected and assessed for IL-2 production by ELISA.

T-cell hybridomas [2] = test: FVIII peptide specificity of T cell hybridomas generated from FVIII-/- HLA-DR2+ mice (IL-2 production); format: cell-based; conditions: of 19 hybridomas specific for factor VIII; factor VIII deficient HLA-DR2 mice
Source text: Factor VIII deficient mice expressing HLA-DR2 were immunised with factor VIII in adjuvant. Spleen cells from the immunised mice were restimulated in vitro with factor VIII and the resulting lymphoblasts were fused with BW5147, as described above. T-cell hybridomas were screened for their response to the 12 predicted peptides. Yet again, the majority of hybridomas responded to peptides DNIMV (SEQ ID NO:72) and PRCLT (SEQ ID NO:70). Of 19 hybridomas specific for factor VIII, 10 responded to DNIMV (SEQ ID NO:72), 6 to PRCLT (SEQ ID NO:70), 1 to PPIIA (SEQ ID NO:65), 1 to SLYIS (SEQ ID NO:64) and 1 to DTLLI (SEQ ID NO:69).
(§1) HLA-DR2+ murine MHC class II null mice were immunised as above. On day 10 draining lymph nodes were removed and lymphocytes cultured at 2.5×10^6 cells/ml, 1 ml/well in 24 well plates in the presence of 20 μg/ml rhFVIII for 3 days. Following this stimulation, lymphocytes were recovered, washed and fused with TCRα^−β^− BW fusion partner cells at a ratio of 4 BW cells to 1 lymphocyte, using polyethylene glycol as described by Nelson et al (1980) PNAS 77(5):2866. Fused cells were carefully washed and then plated out in flat bottomed 96 well plates for 2 days before the addition of HAT medium to select for T cell hybridomas. Cells were monitored for growth and approximately 10 days after fusions were performed, individual clones were selected and transferred to 24 well plates in HAT medium. Clones were maintained in HAT medium for at least 2 weeks before being weaned into HT medium and then complete medium. Clones were tested for antigenic specificity by culturing 100 μl of hybridoma cells with 5×10^4 Mgar cells in the presence and absence of 20 μg/ml rhFVIII overnight. Supernatants were then collected and assessed for IL-2 production by ELISA, with clones producing IL-2 in response to rhFVIII being considered positive for FVIII-specificity. To investigate the repertoire of predicted FVIII peptides FVIII-specific clones were again tested for IL-2 production, following overnight incubation with 20 μg/ml of each of the 12 peptides.
The same method was followed as for (ii), except the mice were FVIII-deficient and HLA-DR2+.

[3] = tested on: lymph node cells from FVIII-DR2+ mice; test: Recall responses of lymph node cells from FVIII-DR2+ mice primed with rhFVIII/CFA to the peptide panel; format: cell-based; conditions: FVIII-DR2+ animals immunised with factor VIII in adjuvant; FIG. 3
Source text: HLA-DR2 transgenic mice were crossed with factor VIII deficient mice to create a model of haemophilia expressing the human HLA class II MHC molecule.
These FVIII-DR2+ animals were immunised with factor VIII in adjuvant. Draining lymph nodes were isolated and tested for their response to the peptide panel.
The same method was followed as for (i), except the mice were FVIII-deficient, HLA-DR2+ and murine MHC class II null.

HLA-DR2 transgenic mice = test: Tolerisation of FVIII-specific responses in DR2+ mice by pre-treatment with peptide; format: in vivo; conditions: 3x i.p. 100 μg peptide prior to priming with rhFVIII/CFA, vs PBS, FIG. 6
Procedure: HLA-DR2 transgenic mice were treated with either of the two soluble peptides, or PBS as a control, prior to immunisation with factor VIII in adjuvant. Draining lymph nodes were isolated and the cells restimulated in vitro with factor VIII protein in order to assess the immune status of the mice.
HLA-DR2+ murine MHC class II null mice were treated 3 times with 100 μg of DNIMV (SEQ ID NO:72), PRCLT (SEQ ID NO:70) or PPIIA (SEQ ID NO:65) dissolved in PBS, or the equivalent volume of PBS alone. Peptides were administered intraperitoneally, with 3-4 days between each dose. Following the final administration, mice were primed with rhFVIII emulsified in complete Freunds adjuvant as for (i). 10 days later, draining lymph nodes were recovered and lymphocytes subsequently cultured in vitro with rhFVIII, or each of the tolerising peptides as well as control antigens, for 72 hours before the addition of tritiated thymidine as for (i).

[4] = tested on: HLA-DR2 restricted cells from factor VIII immunised mice; test: Recall responses (proliferation) of lymph node cells from FVIII+DR2+ mice primed with rhFVIII/CFA to FVIII peptides; format: cell-based; conditions: FVIII+DR2+ mice immunised with human factor VIII in adjuvant; LNC restimulated in vitro with peptide; FIG. 1
T-cell hybridomas [5] = test: FVIII peptide specificity of T cell hybridomas generated from DR2+ mice (IL-2 production); format: cell-based; conditions: for Number of hybridomas responding to peptide: of the 27 hybridomas screened, HLA-DR2 mice, 20 μg/ml peptide, IL-2
Source text: HLA-DR2 mice were first immunised with factor VIII in adjuvant. Spleen cells from immune mice were restimulated in vitro with factor VIII and the resulting lymphoblasts were fused with the BW5147 thymoma using polyethylene glycol.
T-cell hybridomas were selected in HAT medium and the hybridomas cloned and tested for their response to factor VIII. The hybridomas were then screened for their response to the 12 predicted peptides.
as §1

DNIMVTFRNQASRPY
Presentation by live and fixed Mgar cells [1]: presented by both live and fixed Mgar cells | Number of hybridomas responding to peptide (T-cell hybridomas [2]): 10 | Response of lymph node cells to peptide [3]: responded well | Immune response to factor VIII after peptide pre-treatment (LNC recall response) (HLA-DR2 transgenic mice): substantial suppression of the immune response to factor VIII | Response of lymph node cells to peptide (LNC proliferation) [4]: respond strongly | Number of hybridomas responding to peptide (T-cell hybridomas [5]): 11

DTLLIIFKNQASRPY
Number of hybridomas responding to peptide (T-cell hybridomas [2]): 1

GTLMVFFGNVDSSGI [FVIII first AA 2140]
Response of lymph node cells to peptide [3]: weak response

PPIIARYIRLHPTHY [FVIII first AA 2161]
Number of hybridomas responding to peptide (T-cell hybridomas [2]): 1 | Response of lymph node cells to peptide (LNC proliferation) [4]: responses | Quality of hybridoma response to peptide (T-cell hybridomas [5]; HLA-DR2 mice hybridomas): weaker and less specific | Number of hybridomas responding to peptide (T-cell hybridomas [5]): 3

PRCLTRYYSSFVNME
Presentation by live and fixed Mgar cells [1]: presented by both live and fixed Mgar cells | Number of hybridomas responding to peptide (T-cell hybridomas [2]): 6 | Response of lymph node cells to peptide [3]: responded well | Immune response to factor VIII after peptide pre-treatment (LNC recall response) (HLA-DR2 transgenic mice): substantial suppression of the immune response to factor VIII | Response of lymph node cells to peptide (LNC proliferation) [4]: responses | Number of hybridomas responding to peptide (T-cell hybridomas [5]): 3

RYLRIHPQSWVHQIA [FVIII first AA 2322]
Response of lymph node cells to peptide [3]: significant response

SLYISQFIIMYSLDG [FVIII first AA 2114]
Number of hybridomas responding to peptide (T-cell hybridomas [2]): 1
